# Entries after “also recorded” stand apart in the source; their conditions may differ. Where a SMILES comes first, the peptide text is derived from it. Bridges are numbered along the chain shown (N, C = ends). The star is where a group is joined. Lauroyl = CCCCCCCCCCCC(=O)*
# Key:
# [1] = tested on: human umbilical chord artery endothelial cells (HUAEC); test: Ca-influx after vasopressin analog stimulation of HUAEC, samples pre-incubated in human serum; assay type: cell-based; design: key to Activity of Various Vasopressin Analogs, 0 h / Activity of Various Vasopressin Analogs, 1 h / Activity of Various Vasopressin Analogs, 2 h / Activity of Various Vasopressin Analogs, 4 h: “−” for no detectable activity; “+” to “+++” for slight to high activity; “+” to “+++” for slight to high activity; “+” to “+++” for slight to high activity
# Description: Ca-influx after vasopressin analog stimulation of human umbilical chord artery endothelial cells (HUAEC) was used to test the biological activity of the various vasopressin analogs. The material used were: 75 cm^2 tissue culture flasks, BD Bioscience, Bedford Mass. (catalogue number 137787) with 0.2 μm vented blue plug seal caps (catalogue number 353136); human umbilical artery endothelial cells (HUAEC), Lonza, Walkersville, Md. (catalogue number CC-2520); EGM-2 fully supplement medium, Lonza, Walkersville, Md. (catalogue number CC-3162); Fura-2 AM, Invitrogen/Molecular Probes, Carlsbad, Calif. (catalogue number F-1221) (Fura-2 AM is a high affinity, intracellular calcium indicator that is ratiometric and UV light-excitable; the acetoxymethyl (AM) ester form is useful for noninvasive intracellular loading as it is cell permeable. Once inside the cell the ester is clipped which renders the Fura-2 molecule cell impermeable and therefore trapped inside.); terlipressin derivatives custom made by Anaspec, San Jose Calif., according to inventors specifications; pooled human serum, Sigma, St. Louis, Mo. (catalogue number H4522); phosphate buffered saline (PBS), Fisher Scientific, Fair Lawn, N.J. (catalogue number BP399-500); trypsin-EDTA solution, 0.25%, Invitrogen/Gibco, Carlsbad, Calif. (catalogue number 25200-072); heat inactivated fetal bovine serum (FBS), Invitrogen/Gibco, Carlsbad, Calif. (catalogue number 10438-026); black polystyrene 96 well flat-bottom assay plates, Corning Inc., Corning, N.Y. (catalogue number 3916); Chameleon plate multilabel detection reader, Hidex, Turku, Finland, distributed by Bioscan, Washington, D.C.; dimethyl sulfoxide (DMSO), Fisher Scientific, Fair Lawn, N.J. (catalogue number D-136-1).
# The methods used for tissue or cell culture are as follows: a vial of HUAEC (>0.5×10^6 cells) was thawed and seeded in two 75 cm^2 flasks with 15 ml EGM-2 medium each. Cells were grown over night and medium was changed. Media in the flasks were changed on a Monday, Wednesday, Friday schedule. Cells were split at approximately 80% confluency (using trypsin). Media were removed and the flasks were washed with 10 ml 1×PBS. The PBS was removed, 1.5 ml trypsin-EDTA solution was added and incubated for 5 min at 37° C. Three ml of FBS added and the cells were counted. The cells were centrifuged at 200×G for 5 min, resuspended in EGM-2 medium and distributed into new 75 cm2 flasks @ 3000-5000 cells per cm2.
# To prepare for the Ca2+-influx assay, cells were distributed into one black 96 well plate @ 10^5 cells/well. Cells were allowed to adhere overnight and the medium was then removed. Fifty μg Fura-2 was dissolved in 50 μl DMSO and added to 10 ml PBS/2% FBS. The cells were stained with 20 μl of 5 μg/ml Fura-2 in PBS/2% FBS for 2 h, then 180 μl EGM-2 medium supplemented with CaCl2 and glucose was added (10 mM CaCl2 and 11.1 mM glucose final concentrations).
# To prepare analogs for testing, 50 uM terlipressin (or derivative) stock solution in DMSO was prepared. […] (placed on ice after incubation).
# To measure Ca-influx, Fura-2 fluorescence was measured for 4 repetitions per well at 340 nm ex/510 nm em and 420 nm ex/510 nm em (4 measurement before and 16 after injection of drug. At t=12 sec, 20 μl of terlipressin or derivative was injected as a 500 nM solution (or serum) for a final concentration of 50 nM per well. Fura-2 fluorescence was measured for […] per well at 340 nm ex/510 nm em and 420 nm ex/510 nm em (4 measurements before and 16 after injection of drug). The controls included injected human serum alone, and terlipressin or derivative dissolved in PBS as […]. All measurements were done in hexuplicate.
# Data analysis was done using Graphpad Prism version 5.0 software (Graphpad software Inc, San Diego, Calif.). […]
# [2] = Solubility in water of the synthesized peptide; assay type: physicochemical; settings: in words
smiles,measurement,setting,value
"CCCCCCCCCCCC(=O)NCC(=O)NCC(=O)NCC(=O)N[C@H]1CSSC[C@@H](C(=O)N2CCC[C@H]2C(=O)N[C@@H](CCCCN)C(=O)NCC(N)=O)NC(=O)[C@H](CC(N)=O)NC(=O)[C@H](CCC(N)=O)NC(=O)[C@H](Cc2ccccc2)NC(=O)[C@H](Cc2ccc(O)cc2)NC1=O [C12TerA, CH3(CH2)10CO-Gly-Gly-Gly-Cys-Tyr-Phe-Gln-Asn-Cys-Pro-Lys-Gly-NH2] (Lauroyl-GGGCYFQNCPKG-NH2; disulfide 4-9)","Activity of Various Vasopressin Analogs, 0 h","[1]; 0 h pre-incubation in pooled human serum at 37° C. (serum present), Ca-influx in HUAEC, 50 nM per well",+++
same,"Activity of Various Vasopressin Analogs, 1 h","[1]; 1 h pre-incubation in pooled human serum at 37° C., Ca-influx in HUAEC, 50 nM per well",+++
same,"Activity of Various Vasopressin Analogs, 2 h","[1]; 2 h pre-incubation in pooled human serum at 37° C., Ca-influx in HUAEC, 50 nM per well",+++
same,"Activity of Various Vasopressin Analogs, 4 h","[1]; 4 h pre-incubation in pooled human serum at 37° C., Ca-influx in HUAEC, 50 nM per well",+++
same,calcium influx after 2-hour incubation in human serum,"[1]; FIG. 11, Fura-2 fluorescence, in words",able to induce calcium influx; also recorded: pronounced calcium influx
same,solubility in water,[2],limited solubility in water

# From US8518876B2, “Composition for long-acting peptide analogs” (Pharmaln Corporation, priority 2007, dated 2013)
